# Measurements reported in patent US20080058272A1, “Nonamer Peptides for Cancer Treatment” (priority 2006, published 2008).
# Test system: PBMC of melanoma patients
# Experiment: Flow cytometry with HLA-A2/FAPα peptide multimers after in vitro stimulation
# Format: cell-based, human
# Procedure: The human HLA-A*0201-positive cell lines T2, a TAP-deficient T cell leukemia/B cell line hybrid and JY, a B-LCL were cultured in RPMI 1640 supplemented with 10% heat inactivated FCS. After informed consent peripheral blood lymphocytes (PBLs) were collected from HLA-A2-positive patients with advanced malignant melanoma. PBLs from HLA-A2-positive healthy individuals were used as controls. PBLs were isolated using Lymphoprep separation (Axis-Shield PoC AS, Oslo, Norway) according to the manufacturer's instructions and used directly or frozen in FCS with 10% DMSO. PBL were cultured in RPMI/10% human AB serum. Dendritic cells (DCs) were generated from PBMC by adherence on culture dishes at 37° C. for 60 minutes in RPMI enriched with 10% human AB serum. […]
# After peptide-specific stimulation with FAPα peptides or with FAPα mRNA transfected DC, generated as described previously (Fassnacht et al. 2005) PBLs were stained with HLA-A2/FAPα peptide FITC-labeled multimers (a kind gift of Jorgen Scholler, Dako, Glostrup, Denmark) in PBS/0.1% BSA/FCS for 30 min in the dark, followed by staining with anti-CD8-PE (Dako, Glostrup, Denmark) for 30 min at 4° C. in the dark. Samples were analyzed on BD FACS Canto (Becton Dickinson, Heidelberg, Germany) using WinMDi or FCS Express V3.
sequence,measurement,setting,value
GLFKCGIAV (listed as Homo sapiens) [FAPα^639-647],detection of HLA-A2/FAPα^639-647 specific T cells,after in vitro stimulation with FAPα peptide-loaded dendritic cells,able to detect
same,detection of HLA-A2/FAPα^639-647 specific T cells,after stimulation with DCs transfected with FAPα mRNA,can be detected
